Results published in patent publication US11440907B1 (Merck Patent GmbH, priority 2018, dated 2022).

What was measured:
Assay type in all cases: cell-based
[1] = test system: intracellular calcium flux in Colo-205 cells; assay: Calcium flux assay (FLIPR Calcium 5 Assay Kit, FLIPR3); conditions: Homo sapiens, 0.6 h, calcium flux measured over 36 minutes, read-out: Colo 205 Calcium Flux assay 384w Boston Ca assay FLIPR3 Colo EC50
Procedure: Compounds described herein induced ER stress by causing intracellular calcium flux. Calcium flux was measured in Colo-205 cells using the FLIPR® Calcium 5 Assay Kit according to manufacturer's protocol (Molecular Devices, Cat. #R8186) on a FLIPR3 system (Molecular Devices). Calcium flux is measured over 36 minutes. The Colo-205 calcium flux assay data are summarized in Table 3: A<0.6 μM; 0.6 μM≤B<2.0 μM; 2.0 μM≤C<10.0 μM; D≥10.0 μM.

[2] = test system: β-catenin-TCF-mediated reporter transcription activity in Colo 205 cells; assay: Colo 205 reporter assay (TCF/LEF promoter-driven firefly luciferase); conditions: Homo sapiens; Colo 205 TCF/LEF luciferase reporter, 5 hours after compound addition, 384 well; read-out: Colo205 IC50
[3] = test system: NCI-H929 (Multiple myeloma cells); assay: Cell viability (ATPLite) in NCI-H929; conditions: Homo sapiens, 96 hours
Procedure: Cells were removed from liquid nitrogen storage, thawed and expanded in appropriate growth media. Once expanded, cells were seeded in 384-well tissue culture treated plates at 500 cells per well. After 24 hours, cells were treated for either 0 hours or treated for 96 hours with a testing compound (at the concentrations of 100 nM and 2 uM). At the end of either 0 hours or 96 hours, cell status was analyzed using ATPLite (Perkin Elmer) to assess the biological response of cells to the testing compound.

[4] = test system: XBP1(u)-luciferase splicing reporter in HepG2 hepatoma cells; assay: HepG2 XBP1 reporter assay (XBP1(u)-Luc); conditions: Homo sapiens, 6 h, six hours after addition of compound

Row | Structure (SMILES) | EC50 [1] [nM] | IC50 [2] [nM] | IC50 [3] [nM] | IC50 [4] [nM]
1 | Cc1cc(N2CCCCC[C@@H]2c2ccc(F)cc2C2CC2)nc(N)n1 [I-47, (R)-4-(2-(2-cyclopropyl-4-fluorophenyl)azepan-1-yl)-6-methylpyrimidin-2-amine] | 600 to 2000 | 300 to 1000 | – | –
2 | Cc1cc(N2CCCOCC2c2c(F)cccc2Cl)nc(N)n1 (racemic) [I-59, (+/−)-4-(3-(2-chloro-6-fluorophenyl)-1,4-oxazepan-4-yl)-6-methylpyrimidin-2-amine] | < 600 | 300 to 1000 | – | –
3 | COC(=O)c1ccc(OC)c(C2COCCCN2c2cc(C)nc(N)n2)c1 (stereo not drawn) [I-289] | < 600 | 300 to 1000 | – | –
4 | Cc1cc(N2CCCOCC2c2ccc(CS(C)(=O)=O)[nH]c2=O)nc(N)n1 [D-146] | – | – | ≥ 25000 | ≥ 5000
5 | CCc1cc(N2CCCOC[C@@H]2c2ccc(CS(C)(=O)=O)cc2Cl)nc(N)n1 [D-59] | – | – | < 1000 | < 600
6 | CCOC(=O)[C@@]1(C)CNc2cc(Cl)c([C@H]3COCCCN3c3cc(C)nc(N)n3)cc2O1 [D-37] | – | – | ≥ 25000 | 600 to 2000
7 | Cc1cc(N2CCCOC[C@H]2c2ccc(C3CCNCC3)cc2Cl)nc(N)n1 [D-68] | – | – | < 1000 | < 600
8 | CCOC(=O)[C@]1(C)CNc2cc(Cl)c([C@H]3COCCCN3c3cc(C)nc(N)n3)cc2O1 [D-36] | – | – | < 1000 | < 600
9 | Cc1cc(N2CCCOCC2c2ccc(CS(C)(=O)=O)nc2F)nc(N)n1 [D-33] | – | – | ≥ 25000 | 2000 to 5000
10 | Cc1cc(N2CCCOCC2c2ncc(CS(C)(=O)=O)cc2F)nc(N)n1 [D-43] | – | – | 1000 to 10000 | 600 to 2000
11 | COc1cc(C2COCCCN2c2cc(C)nc(N)n2)c(Cl)cc1OCC(=O)N1CCCCC1 [D-24] | – | – | ≥ 25000 | < 600
12 | Cc1cc(N2CCCCCC2c2ccc(S(C)(=O)=O)cc2C)nc(N)n1 (racemic) [I-37, (+/−)-4-methyl-6-(2-(2-methyl-4-(methylsulfonyl)phenyl)azepan-1-yl)pyrimidin-2-amine] | < 600 | 300 to 1000 | – | –
13 | CCOC(=O)OCc1cc(Cl)c(C2COCCCN2c2cc(C)nc(N)n2)cc1OCC [D-42] | – | – | 1000 to 10000 | 600 to 2000
14 | CCc1cc(N2CCCOC[C@@H]2c2cc(O)c(OC)cc2Cl)nc(N)n1 [D-104] | – | – | < 1000 | < 600
15 | Cc1cc(N2CCCOC[C@H]2c2ccc(S(=O)(=O)C3CCC3)cc2Cl)nc(N)n1 [D-141] | – | – | 1000 to 10000 | ≥ 5000
16 | Cc1cc(N2CCCOC[C@@H]2c2ccc(OCS(C)(=O)=O)cc2Cl)nc(N)n1 [D-1] | – | – | ≥ 25000 | 600 to 2000
17 | Cc1cc(N2CCCOCC2c2ccc(CS(C)(=O)=O)nc2OC(F)F)nc(N)n1 [D-54] | – | – | 1000 to 10000 | < 600

Row | Structure (SMILES) | EC50 [1] [nM] | IC50 [2] [nM] | IC50 [3] [nM] | IC50 [4] [nM]
18 | Cc1cc(N2CCCOCC2c2ncc(CS(C)(=O)=O)cc2Cl)nc(N)n1 [D-40] | – | – | < 1000 | < 600
19 | CCc1cc(N2CCCOCC2c2cc(O)c(OC)cc2Cl)nc(N)n1 [D-71] | – | – | < 1000 | < 600
20 | CNC(=O)c1ccc(F)c(C2CCCCCN2c2cc(C)nc(N)n2)c1 (stereo not drawn) [I-55, 3-(1-(2-amino-6-methylpyrimidin-4-yl)azepan-2-yl)-4-fluoro-N-methylbenzamide] | < 600 | 300 to 1000 | – | –
21 | Cc1cc(N2CCCOC[C@H]2c2ccc(NC(=O)CCO)cc2Cl)nc(N)n1 [D-7] | – | – | < 1000 | 600 to 2000
22 | Cc1cc(N2CCCOC[C@H]2c2ccc(OCS(C)(=O)=O)cc2Cl)nc(N)n1 [D-2] | – | – | < 1000 | < 600
23 | Cc1cc(N2CCCOC[C@@H]2c2ccc(NC(=O)CCO)cc2Cl)nc(N)n1 [D-6] | – | – | 1000 to 10000 | 600 to 2000
24 | CNC(=O)c1ccc(OC)c(C2COCCCN2c2cc(C)nc(N)n2)c1 (racemic) [I-82, (+/−)-3-(4-(2-amino-6-methylpyrimidin-4-yl)-1,4-oxazepan-3-yl)-4-methoxy-N-methylbenzamide] | 600 to 2000 | 300 to 1000 | – | –
25 | Cc1cc(N2CCCOC[C@@H]2c2ccc(F)cc2F)nc(N)n1 (single isomer, unassigned) [I-62] | < 600 | 300 to 1000 | – | –
26 | Cc1cc(N2CCCOC[C@H]2c2ccc(NC(=O)C(F)F)cc2Cl)nc(N)n1 [D-142] | – | – | < 1000 | ≥ 5000
27 | CCOC(=O)[C@]1(C)CNc2cc(Cl)c([C@@H]3COCCCN3c3cc(C)nc(N)n3)cc2O1 [D-155] | – | – | ≥ 25000 | ≥ 5000
28 | CCc1cc(N2CCCOCC2c2cc(O)c(NC(C)=O)cc2Cl)nc(N)n1 [D-110] | – | – | < 1000 | < 600
29 | Cc1cc(N2CCCOC[C@H]2c2ccc(CS(C)(=O)=O)cc2OC(F)F)nc(N)n1 [D-152] | – | – | ≥ 25000 | ≥ 5000
30 | Cc1cc(N2CCCOCC2c2ccc(C3CCNCC3)cc2Cl)nc(N)n1 [D-61] | – | – | 1000 to 10000 | < 600
31 | Cc1cc(N2CCCOC[C@@H]2c2ncc(CS(C)(=O)=O)cc2Cl)nc(N)n1 [D-81] | – | – | < 1000 | < 600
32 | CNC(=O)[C@]1(C)CNc2cc(Cl)c([C@H]3COCCCN3c3cc(C)nc(N)n3)cc2O1 [D-116] | – | – | < 1000 | < 600
33 | Cc1cc(N2CCCOC[C@@H]2c2ccc(S(=O)(=O)C3CCC3)cc2Cl)nc(N)n1 [D-3] | – | – | ≥ 25000 | 600 to 2000
34 | Cc1cc(N2CCCOC[C@@H]2c2ccc(NC(=O)C(F)F)cc2Cl)nc(N)n1 [D-8] | – | – | ≥ 25000 | 600 to 2000

Further lines, results first:

Row | EC50 [1] [nM] | IC50 [2] [nM] | IC50 [3] [nM] | IC50 [4] [nM] | Structure (SMILES)
35 | < 600 | < 300 | – | – | Cc1cc(N2CCCOCC2c2cc(N)ccc2Cl)nc(N)n1 (racemic) [I-71, (+/−)-4-(3-(5-amino-2-chlorophenyl)-1,4-oxazepan-4-yl)-6-methylpyrimidin-2-amine]
36 | < 600 | < 300 | – | – | Cc1cc(N2CCCOCC2c2cc(NS(C)(=O)=O)ccc2Cl)nc(N)n1 (racemic) [I-74, (+/−)-N-(3-(4-(2-amino-6-methylpyrimidin-4-yl)-1,4-oxazepan-3-yl)-4-chlorophenyl)methanesulfonamide]
37 | < 600 | < 300 | – | – | Cc1cc(N2CCCOC[C@@H]2c2cc(F)ccc2Cl)nc(N)n1 (single isomer, unassigned) [I-79]
38 | < 600 | < 300 | – | – | Cc1cc(N2CCCOC[C@@H]2c2cc(O)ccc2Cl)nc(N)n1 (single isomer, unassigned) [I-170]
39 | – | – | 1000 to 10000 | 600 to 2000 | COc1cc(C2COCCCN2c2cc(C)nc(N)n2)c(Cl)cc1N1CCCC1 [D-17]
40 | – | – | < 1000 | < 600 | Cc1cc(N2CCCOC[C@@H]2c2ccc(N)cc2Cl)nc(N)n1 [D-30]
41 | – | – | < 1000 | < 600 | Cc1cc(N2CCCOC[C@@H]2c2cc3c(cc2Cl)OCC(C)(C)CO3)nc(N)n1 [D-31]
42 | – | – | ≥ 25000 | ≥ 5000 | Cc1cc(N2CCCOC[C@H]2c2cc(N)c(C(F)(F)F)cc2Cl)nc(N)n1 [D-145]
43 | – | – | 10000 to 25000 | < 600 | Cc1cc(N2CCCOC[C@H]2c2cc3c(cc2Cl)CCN3C)nc(N)n1 [D-27]
44 | – | – | < 1000 | < 600 | Cc1cc(N2CCCOC[C@@H]2c2cc3c(cc2Cl)N(C)CC3)nc(N)n1 [D-14]
45 | – | – | < 1000 | < 600 | Cc1cc(N2CCCOC[C@@H]2c2cc(O)c(CS(C)(=O)=O)cc2Cl)nc(N)n1 [D-86]
46 | – | – | ≥ 25000 | ≥ 5000 | CCOc1cc([C@@H]2COCCCN2c2cc(C)nc(N)n2)c(Cl)cc1OC [D-153]
47 | – | – | < 1000 | < 600 | Cc1cc(N2CCCOC[C@@H]2c2cc3c(cc2Cl)NCCC3)nc(N)n1 [D-9]
48 | – | – | ≥ 25000 | 600 to 2000 | Cc1cc(N2CCCOCC2c2cc(C)c(N3CCC(C)(O)CC3)cc2Cl)nc(N)n1 [D-13]
49 | – | – | < 1000 | < 600 | COc1cc([C@H]2COCCCN2c2cc(C)nc(N)n2)c(Cl)cc1OCC#N [D-38]
50 | – | – | < 1000 | < 600 | Cc1cc(N2CCCOCC2c2cc(O)c(CS(C)(=O)=O)cc2Cl)nc(N)n1 [D-65]
51 | – | – | < 1000 | < 600 | Cc1cc(N2CCCOC[C@@H]2c2cc(N)c(OC(F)(F)F)cc2Cl)nc(N)n1 [D-45]
52 | – | – | < 1000 | < 600 | Cc1cc(N2CCCOCC2c2cnc(CS(C)(=O)=O)cc2Cl)nc(N)n1 [D-49]
53 | – | – | < 1000 | < 600 | CCOc1cc([C@H]2COCCCN2c2cc(C)nc(N)n2)c(Cl)cc1OC [D-34]
54 | – | – | < 1000 | < 600 | Cc1cc(N2CCCOC[C@@H]2c2cc3c(cc2Cl)CCN3C)nc(N)n1 [D-28]
55 | – | – | < 1000 | < 600 | Cc1cc(N2CCCOC[C@@H]2c2cc(O)c(OC(F)(F)F)cc2Cl)nc(N)n1 [D-119]
56 | – | – | < 1000 | < 600 | Cc1cc(N2CCCOCC2c2cc(O)c(OC(F)F)cc2Cl)nc(N)n1 [D-50]
57 | < 600 | 300 to 1000 | – | – | Cc1cc(N2CCCOCC2c2cc(F)ccc2Cl)nc(N)n1 (racemic) [I-70, (+/−)-4-[3-(2-chloro-5-fluoro-phenyl)-1,4-oxazepan-4-yl]-6-methyl-pyrimidin-2-amine]
58 | – | – | ≥ 25000 | ≥ 5000 | Cc1cc(N2CCCOC[C@H]2c2cc3c(cc2Cl)N(C)CC3)nc(N)n1 [D-144]
59 | – | – | < 1000 | < 600 | Cc1cc(N2CCCOC[C@@H]2c2cc(O)c(OC(F)F)cc2Cl)nc(N)n1 [D-57]
60 | – | – | < 1000 | < 600 | Cc1cc(N2CCCOC[C@@H]2c2cc(O)c(C)cc2Cl)nc(N)n1 [D-20]
